The target in one experiment is Mu-type opioid receptor (Homo sapiens, UniProt P35372). Nature of the experiment: Tested in vitro for binding affinity against mu opioid receptor.
Experiment [1] addresses T1, Kappa-type opioid receptor (Homo sapiens, UniProt P41145). Briefly: Tested in vitro for binding affinity against Opioid receptor kappa 1.
For experiment [2], the target named is T1, Kappa-type opioid receptor. Briefly: Ratio of binding affinity against kappa opioid receptor to binding affinity against mu opioid receptor.

Some results are limits rather than exact numbers.

Sequence of Mu-type opioid receptor (P35372 whole entry): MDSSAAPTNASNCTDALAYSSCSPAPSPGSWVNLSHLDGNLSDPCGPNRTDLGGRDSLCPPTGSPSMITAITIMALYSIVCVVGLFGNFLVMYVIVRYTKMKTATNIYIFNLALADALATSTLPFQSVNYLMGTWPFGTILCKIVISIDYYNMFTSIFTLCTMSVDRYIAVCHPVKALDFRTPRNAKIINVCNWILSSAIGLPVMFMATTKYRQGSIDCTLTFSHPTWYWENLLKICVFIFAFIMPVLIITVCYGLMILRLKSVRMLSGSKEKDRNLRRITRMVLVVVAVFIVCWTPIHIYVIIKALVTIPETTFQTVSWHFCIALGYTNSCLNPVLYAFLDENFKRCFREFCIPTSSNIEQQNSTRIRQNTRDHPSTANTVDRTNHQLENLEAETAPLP
T1 sequence (P41145 whole entry): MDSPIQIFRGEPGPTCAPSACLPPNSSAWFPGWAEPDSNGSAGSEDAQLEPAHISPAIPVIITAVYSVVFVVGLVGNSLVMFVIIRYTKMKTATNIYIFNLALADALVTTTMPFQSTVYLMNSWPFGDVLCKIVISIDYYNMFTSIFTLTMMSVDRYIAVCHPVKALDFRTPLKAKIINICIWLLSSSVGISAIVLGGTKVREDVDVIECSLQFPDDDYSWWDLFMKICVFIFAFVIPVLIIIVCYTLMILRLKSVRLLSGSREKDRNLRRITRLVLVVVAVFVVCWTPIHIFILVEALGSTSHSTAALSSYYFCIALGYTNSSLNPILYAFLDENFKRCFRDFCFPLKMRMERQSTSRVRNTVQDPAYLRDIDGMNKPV

`CC[C@]12CCN(CC3CC3)[C@H](C(=O)c3ccc(O)cc31)[C@@H]2C` registered a Ki on Mu-type opioid receptor of 1.02 nM.
As for `O=C1Cc2cccc(c2)OCCCCNCCN1`, the inhibitory constant (Ki) (in experiment [1]; on Mu-type opioid receptor) was > 10000 nM each time.
Consider `O=C(Cc1cccc2occc12)NCC12CCCN1CCC2`, for which the Ratio in experiment [2] was determined as 3.5. For the same molecule, the Ki turned out to be 940 nM in experiment [1] and 3350 nM at Mu-type opioid receptor.
The matching figures for `CN(C(=O)Cc1c(OCCN2CCCC2)ccc2ccccc12)C1CCCCC1`: > 60, 160 nM and > 10000 nM.

Source of the values: ChEMBL document CHEMBL1126961, “The design and synthesis of kappa opioid ligands based on a binding model for kappa agonists” (Bioorg Med Chem Lett, 1993).
